The solubility is how much of the substance goes into solution per volume.

The nature of data set [1]: Rat plasma stability study (37.5° C.). The data set is classed as in vitro ADME, Sprague-Dawley male albino rats. The conditions noted are these: for half-life: rat, plasma, read-out: t1/2 (plasma stability) (converted). The method, then: (§1) The plasma studies were done at three prodrug concentrations: 200, 100 and 50 μg/ml of prodrug. The experimental procedure was as follows: The compound to be tested was taken from a stock aqueous solution of 5 mg/ml and added to the plasma to give the desired prodrug concentration. […] Before centrifugation 200 μl of methanol was added to further precipitate the plasma proteins. The results are expressed in half-lives in hours.
(§2) The chemical and plasma studies were followed by HPLC using a RP C-18 column (150 mm) and a precolumn (50 mm). […] Chart speed was 1 inch/10 minutes.

The nature of data set [2]: Rat liver homogenate stability study (37.5° C.). The format is in vitro ADME, male albino Sprague-Dawley rats. As to conditions: 20% rat liver homogenate, pH 7.4, 50 μg/ml, read-out: t1/2 (liver homogenate stability) (converted). The method, then: (§3) The liver homogenate studies were done using livers freshly obtained from male albino Sprague-Dawley rats. A 20% liver homogenate was prepared in Sorensen's buffer at pH 7.4. Chemical stability studies of rapamycin and the two prodrugs of Examples 2 and 3 were carried out at concentrations of 20, 50 and 50 μg/ml respectively, at 37.5° C.

Another data set can be described thus: Solubility in water. The data set is classed as physicochemical.
Data set [3] in a line: Human plasma stability study (37.5° C.). The data set is classed as in vitro ADME. As to conditions: for half-life: human, plasma. The method, then:
as §1, §2

Data set [4] is described as follows: Chemical stability study in buffers (hydrolysis half-life, HPLC). The conditions noted are these: buffer, read-out: t1/2 (chemical stability) (converted). The data set is classed as physicochemical. The method, then:
In the examples, chemical stability studies for rapamycin and the prodrugs were done at 20 μg/ml with an ionic strength of 0.5. Stabilities at pH 3.3 (0.05M acetate buffer) and pH 7.4 (0.05M phosphate buffer) were studied at 25° and 37.5° C. No antioxidants were added and the buffers were not deoxygenated.
as §2

Data set [5] in a line: Stability to light and to long stirring. The data set is classed as physicochemical.
The conditions of data set [6]: background statement; cited from earlier work.
A short description of data set [7]: Products of decomposition/hydrolysis in plasma and homogenate studies (HPLC, TLC). The method, then:
as §3

[8] abbreviates: human plasma, 50 μg/ml, 37.5° C., read-out: t1/2 (plasma stability) (converted).

Each structure is given as a SMILES string. “Also recorded” adds a separate entry of the source. Structures can show the parent of a compound that is named as a salt. A value given as a limit tells only on which side of the number the result lay.

Turning to `CO[C@H]1C[C@@H]2CC[C@@H](C)[C@@](O)(O2)C(=O)C(=O)N2CCCC[C@H]2C(=O)O[C@H]([C@H](C)C[C@@H]2CC[C@@H](O)[C@H](OC)C2)CC(=O)[C@H](C)/C=C(\C)[C@@H](OC(=O)CN(C)C)[C@@H](OC)C(=O)[C@H](C)C[C@H](C)/C=C/C=C/C=C/1C` [Example 2, Methanesulfonic Acid Salt of Mono-(28)-N,N Dimethylglycinate Ester of Rapamycin], the “t1/2 (plasma stability)” value in data set [1] (50 μg/ml) came to 1.75 h; in data set [3] (human plasma, 50 μg/ml, 37.5° C.) it was 5.0 h. Besides, the half-life in data set [1] (50 μg/ml) was 1.8 h; in data set [1] (100 μg/ml), 1.8 h; in data set [1] (200 μg/ml) it was 2.5 h; in data set [2], 4.5 h; in data set [3] (setting [8]), 5 h; in data set [3] (human plasma, 100 μg/ml, 37.5° C., read-out: t1/2 (plasma stability) (converted)), 4.8 h. Also, the half-life is 5.6 h in data set [3] (human plasma, 200 μg/ml, 37.5° C., read-out: t1/2 (plasma stability) (converted)); 73 h in data set [4] (pH 3.3, pH 3.3, 25° C.); 45 h in data set [4] (pH 7.4, pH 7.4, 25° C.). In the data set “Solubility in water”, this compound had a solubility of more than 50 mg/mL. In addition, the “stability on prolonged exposure to light” value in data set [5] is listed as “slow discoloration of the material; also recorded: appears to discolor upon prolonged exposure to light”. In data set [5] (salt form), the “stability to long stirring times” value was “unstable to long stirring times”.
For the compound `CO[C@H]1C[C@@H]2CC[C@@H](C)[C@@](O)(O2)C(=O)C(=O)N2CCCC[C@H]2C(=O)O[C@H]([C@H](C)C[C@@H]2CC[C@@H](O)[C@H](OC)C2)CC(=O)[C@H](C)/C=C(\C)[C@@H](O)[C@@H](OC)C(=O)[C@H](C)C[C@H](C)/C=C/C=C/C=C/1C` [Rapamycin, rapamycin], the half-life was 2.83 h in data set [1] (50 μg/ml); 5.5 h in data set [2]; 3 h in data set [3] (setting [8]); 35.8 h in data set [4] (pH 3.3, pH 3.3, 25° C.); 9.9 h in data set [4] (pH 3.3, pH 3.3, 37.5° C.); 47.6 h in data set [4] (pH 7.4, pH 7.4, 25° C.). Moreover, the half-life in data set [4] (pH 7.4, pH 7.4, 37.5° C.) is 10.2 h. Moreover, in data set [6], the Solubility in water is on record as 20 micrograms per milliliter. Further, the “further degradation (TLC)” value in data set [7] (plasma and homogenate studies, TLC) was “further degraded to other decomposition products”.
As for `CCN(CC)CCC(=O)O[C@@H]1/C(C)=C/[C@@H](C)C(=O)C[C@@H]([C@H](C)C[C@@H]2CC[C@@H](O)[C@H](OC)C2)OC(=O)[C@@H]2CCCCN2C(=O)C(=O)[C@]2(O)O[C@@H](CC[C@H]2C)C[C@H](OC)/C(C)=C/C=C/C=C/[C@@H](C)C[C@@H](C)C(=O)[C@@H]1OC` [Example 3, Mono-(28)-3-(N,N-Diethylamino)propionate Hydrochloride Salt Ester of Rapamycin], the half-life in data set [1] (100 μg/ml) was 58 h; in data set [1] (200 μg/ml), 60 h; in data set [2], 3.7 h; in data set [3] (t1/2 (plasma stability)), 2.5 h. This compound also gave a solubility in the data set “Solubility in water” of more than 50 mg/mL. For the same compound, the “half life of the prodrug compared with the others” value in data set [3] was “the shortest”. The “time within which half of the prodrug decomposed into products including mainly rapamycin” value in data set [3] was “two and one-half”. In data set [7], the “observed product of hydrolysis / decomposition” value is given as “rapamycin being the only observed product of hydrolysis”. The “stability on prolonged exposure to light” value in data set [5] was “unstable to prolonged exposure to light; also recorded: appears to discolor upon prolonged exposure to light”.
`CO[C@H]1C[C@@H]2CC[C@@H](C)[C@@](O)(O2)C(=O)C(=O)N2CCCC[C@H]2C(=O)O[C@H]([C@H](C)C[C@@H]2CC[C@@H](O)[C@H](OC)C2)CC(=O)[C@H](C)/C=C(\C)[C@@H](OC(=O)CCCN2CCCC2)[C@@H](OC)C(=O)[C@H](C)C[C@H](C)/C=C/C=C/C=C/1C` [Example 4, Mono-(28)-4'-(N-pyrrolidino)-butyrate Hydrochloride Salt Ester of Rapamycin]: in the data set “Solubility in water”, the solubility was approximately 15 mg/mL. Also, the “stability on prolonged exposure to light” value in data set [5] was “appears to discolor upon prolonged exposure to light”.

(Values after patent US4650803A, “Prodrugs of rapamycin” (University of Kansas, priority 1985, dated 1987).)
